In patent US8163960B2, “Process for preparing and drying solid rasagiline base” (Teva Pharmaceutical Industries, Ltd., priority 2008, dated 2012):
Values after ≈ are worked out from the molar mass of the structure shown. Like-named read-outs stand apart in the source and are kept apart here.

Tests used:
[1] = Procedure: Approximately four (4) grams of rasagiline base was introduced into the sublimation reservoir of a standard Sigma-Aldrich glass sublimation apparatus, (Cat. No. Z221171-1EA) with internal diameter of 3 cm. The apparatus was equipped with vacuum pump, vacuumeter and circulating ice-water bath for cooling of the apparatus' sublimation head. The apparatus was then closed and circulation of coolant at 0 to 1° C. was started. The vacuum was then built to a pressure (“P”) of 2-3 mbar and the reservoir was introduced into thermostatic water bath maintained at temperature (“T”) of 21° C.
The process was controlled by visual observation of the sublimed solid forming on the sublimation head. After sublimation completed the operation time was recorded, the apparatus was opened and the sublimed solid was removed from the head and weighed.
The mean sublimation rate was calculated as follows:
Mean Sublimation Rate Rs1: Rs1=m/M·t [gg^−1hr^−1]
Mean Sublimation Rate Rs2: Rs2=m/S·t [gm^−2hr^−1]
Mean Relative Sublimation Rate R: R=m·100/M·t [%/hr] m—mass of sublimed material, g M—mass of starting material, g t=sublimation time, hrs S=sublimation area (apparatus section area), m^2

[2] = for Description: wet with water, RT, protected from light
Procedure: Rasagiline Base wet with water produced in Example […] was stored at ambient temperature (RT) in polyethylene bag inside aluminium laminate bag protected from light. The solid was sampled, dried to constant weight under vacuum and analyzed. The sampling and analysis were performed at time zero, than after 2 weeks and 4 weeks from zero time.

[3] = alcohols, acetone, ethyl acetate, toluene, diethyl ether, dioxane, hexane and n-heptane
[4] = low levels of volatiles by KF and TGA
[5] = 48 hrs in air; 7-8° C. or ambient temperature
Procedure: Two batches of Rasagiline base were prepared in order to simulate the storage of Rasagiline base in ethanol solution at different temperatures.
17.0 g of Rasagiline base oil was dissolved in 17 g absolute ethanol. The resulting solution was introduced into refrigerator and stored at 7-8° C. for 48 hrs. The ethanol solution was sampled (sample 1).
The reactor was cooled (Tj=11° C.) and 8 g of water was introduced at stirring. Then the solution was seeded with solid Rasagiline base and crystallization was observed. The batch was stirred for 15 min at 11-12° C. and then 33.8 g of water was added. The resulting suspension was cooled to 4° C. and stirred at 1-4° C. for 30 min. The solid was filtered and washed twice with 17 ml water. Wet solid product (17.6 g) was dried under vacuum.
17.0 g of Rasagiline base oil was dissolved in 17 g absolute ethanol. The resulting solution was stored at ambient temperature (20-28° C.) for 48 hrs. The ethanol solution was sampled (sample 1).
The reactor was cooled (Tj=11° C.) and 8 g of water was introduced at stirring. Then the solution was seeded with solid Rasagiline base and crystallization was observed. The batch was stirred for 20 min at 11-12° C. and then 33.8 g water was added. The resulting suspension was cooled to 4° C. and stirred at 1-4° C. for 30 min. The batch was filtered and washed twice with 17 ml water. […]

[6] = physchem; settings: 25 °C, pH 11, water
[7] = Ex. 12, solid, 2-3 mbar, 21 °C, 8.0 hr
[8] = Ex. 13, solid, 2-3 mbar, 35 °C, 5.33 hr
[9] = Ex. 14, melt, 2-3 mbar, 60 °C, 4.0 hr
[10] = Ex. 15, solid, 20 mbar, 21 °C, 8.5 hr
[11] = Ex. 16, solid, 40 mbar, 21 °C, 8.5 hr
[12] = Ex. 17, solid, 40 mbar, 35 °C, 5.33 hr
[13] = Ex. 18, solid, 20 mbar, 35 °C, 5.33 hr
[14] = Ex. 19, melt, 40 mbar, 60 °C, 5.33 hr
[15] = Ex. 20, melt, 20 mbar, 60 °C, 5.33 hr

SMILES: C#CCN[C@@H]1CCc2ccccc21 [rasagiline base, R(+)-N-propargyl-1-aminoindan]
- Mean relative sublimation rate R [1, 7]: 0.0312 %/hr
- Mean sublimation rate Rs1 [1, 7]: 3.12e-05 g/g/h
- Mean sublimation rate Rs2 [1, 7]: 1.333 g/hr/m^2
- Sublimed solid fraction [1, 7]: 0.25%
- −log Rs1 [1, 7]: 4.5
- Mean relative sublimation rate R [1, 8]: 0.116 %/hr
- Mean sublimation rate Rs1 [1, 8]: 0.00117 g/g/h
- Mean sublimation rate Rs2 [1, 8]: 4.978 g/hr/m^2
- Sublimed solid fraction [1, 8]: 0.62%
- −log Rs1 [1, 8]: 2.93
- Mean relative sublimation rate R [1, 9]: 5.6 %/hr
- Mean sublimation rate Rs1 [1, 9]: 0.0562 g/g/h
- Mean sublimation rate Rs2 [1, 9]: 236.19 g/hr/m^2
- Sublimed solid fraction [1, 9]: 22.4%
- −log Rs1 [1, 9]: 1.25
- Mean relative sublimation rate R [1, 10]: 0.0 %/hr
- Mean sublimation rate Rs1 [1, 10]: 0.0 g/g/h
- Mean sublimation rate Rs2 [1, 10]: 0.0 g/hr/m^2
- Sublimed solid fraction [1, 10]: 0.0%
- Mean relative sublimation rate R [1, 11]: 0.0 %/hr
- Mean sublimation rate Rs1 [1, 11]: 0.0 g/g/h
- Mean sublimation rate Rs2 [1, 11]: 0.0 g/hr/m^2
- Sublimed solid fraction [1, 11]: 0.0%
- Mean relative sublimation rate R [1, 12]: 0.0375 %/hr
- Mean sublimation rate Rs1 [1, 12]: 0.000375 g/g/h
- Mean sublimation rate Rs2 [1, 12]: 1.593 g/hr/m^2
- Sublimed solid fraction [1, 12]: 0.20%
- −log Rs1 [1, 12]: 3.42
- Mean relative sublimation rate R [1, 13]: 0.0506 %/hr
- Mean sublimation rate Rs1 [1, 13]: 0.000515 g/g/h
- Mean sublimation rate Rs2 [1, 13]: 2.192 g/hr/m^2
- Sublimed solid fraction [1, 13]: 0.27%
- −log Rs1 [1, 13]: 3.29
- Mean relative sublimation rate R [1, 14]: 0.116 %/hr
- Mean sublimation rate Rs1 [1, 14]: 0.00117 g/g/h
- Mean sublimation rate Rs2 [1, 14]: 4.978 g/hr/m^2
- Sublimed solid fraction [1, 14]: 0.62%
- −log Rs1 [1, 14]: 2.93
- Mean relative sublimation rate R [1, 15]: 0.769 %/hr
- Mean sublimation rate Rs1 [1, 15]: 0.00764 g/g/h
- Mean sublimation rate Rs2 [1, 15]: 32.26 g/hr/m^2
- Sublimed solid fraction [1, 15]: 4.1%
- −log Rs1 [1, 15]: 2.12
- Assay by HPLC ([2]; 2 weeks): 100.5 % on dry basis
- Enantiomeric purity by HPLC (S-isomer) ([2]; 2 weeks): L.T. 0.1%
- ID by HPLC ([2]; 2 weeks): Conforms
- IDD by HPLC: 1-Aminoindan ([2]; 2 weeks): L.T. 0.02%
- IDD by HPLC: 1-Indanone ([2]; 2 weeks): L.T. 0.02%
- IDD by HPLC: 3-PAIO ([2]; 2 weeks): L.T. 0.02%
- IDD by HPLC: Any other ([2]; 2 weeks): L.T. 0.02%
- IDD by HPLC: Total ([2]; 2 weeks): L.T. 0.02%
- Water content by CKF ([2]; 2 weeks): 0.04%
- Assay by HPLC ([2]; 4 weeks): 100.7 % on dry basis
- Enantiomeric purity by HPLC (S-isomer) ([2]; 4 weeks): L.T. 0.1%
- ID by HPLC ([2]; 4 weeks): Conforms
- IDD by HPLC: 1-Aminoindan ([2]; 4 weeks): L.T. 0.02%
- IDD by HPLC: 1-Indanone ([2]; 4 weeks): L.T. 0.02%
- IDD by HPLC: 3-PAIO ([2]; 4 weeks): L.T. 0.02%
- IDD by HPLC: Any other ([2]; 4 weeks): L.T. 0.02%
- IDD by HPLC: Total ([2]; 4 weeks): L.T. 0.02%
- Water content by CKF ([2]; 4 weeks): 0.03%
- Assay by HPLC ([2]; Start (t = 0)): 100.1 % on dry basis
- Enantiomeric purity by HPLC (S-isomer) ([2]; Start (t = 0)): L.T. 0.1%
- ID by HPLC ([2]; Start (t = 0)): Conforms
- IDD by HPLC: 1-Aminoindan ([2]; Start (t = 0)): L.T. 0.02%
- IDD by HPLC: 1-Indanone ([2]; Start (t = 0)): L.T. 0.02%
- IDD by HPLC: 3-PAIO ([2]; Start (t = 0)): L.T. 0.02%
- IDD by HPLC: Any other ([2]; Start (t = 0)): L.T. 0.02%
- IDD by HPLC: Total ([2]; Start (t = 0)): L.T. 0.02%
- Water content by CKF ([2]; Start (t = 0)): 0.04%
- Time limitation ([2]; Storage temperature +2-+8° C.): One month
- Description ([2]; 2 weeks): White solid
- Description ([2]; 4 weeks): White solid
- Description ([2]; Start (t = 0)): White solid
- solubility in organic solvents [3]: freely soluble
- hygroscopicity [4]: not hygroscopic
- effect of holding as ethanol solution on yield and quality of solid product [5]: do not affect the yield and quality of solid product
- solubility [6]: 5500 µg/mL (≈ 32.1 mM)
